“And” between values parts separate entries of the source, which are not always exact repeats. Equal values may be shown once.
Experiments:
[1] = tested on: L3.6pl pancreatic cancer cells; test: Orthotopic L3.6pl pancreatic tumour model in nude mice: pancreatic tumour weight and liver metastases; assay type: in vivo, human; settings: for Liver Metastases: animals with metastases/animals
Text: (§1) The test method has been described by C J Bruns et al., Cancer Research, 2000, 60, 2926-2935 and involves the injection of pancreatic tumour cells derived from the COLO 357 human pancreatic cancer cell line into pancreas tissue in a group of nude mice and an evaluation of tumour growth and metastasis into liver node tissue. L3.6pl pancreatic cancer cells were obtained after successive cycles of cell selection from nude mouse tumour tissue that developed after injection of COLO 357 human pancreatic cancer cells. L3.6pl cancer cells (1×10^6 cells) were injected into the pancreas of each animal in several groups of male athymic nude mice (n=8 to 10 per group). […] On the days where both agents were given, the gemcitabine was dosed at least 1 hour before test compound Src-1. A control group of 10 mice received intraperitoneal injections of an equivalent volume of saline according to the same treatment schedule as the combination group. The animals were sacrificed 32 days after tumour cell injection. The pancreatic tumour weight was measured. The incidence of liver metastases was evaluated. All macroscopically enlarged liver nodules were evaluated by histopathology to confirm tumour metastasis.

[2] = Body weight of treated nude mice in the L3.6pl pancreatic tumour model; assay type: in vivo, male athymic nude mice
Description: as §1, with “L3.6pl” for “The test method has been described by C J Bruns et al., Cancer Research, 2000, 60, 2926-2935 and involves the injection of pancreatic tumour cells derived from the COLO 357 human pancreatic cancer cell line into pancreas tissue in a group of nude mice and an evaluation of tumour growth and metastasis into liver node tissue. L3.6pl”

[3] = Src-1 25 mg/kg orally by gavage daily, days 1-5 and 8-12, 32 days after tumour cell injection
[4] = Src-1 50 mg/kg orally by gavage daily, days 1-5 and 8-12, 32 days after tumour cell injection

| Compound | Average Tumour Weight +/− std dev [1, 3] [mg] | Liver Metastases [1, 3] | Average Tumour Weight +/− std dev [1, 4] [mg] | Liver Metastases [1, 4] | Average Body Weight +/− std dev ([2]; Src-1 25 mg/kg orally by gavage daily, days 1-5 and 8-12) [g] | Average Body Weight +/− std dev ([2]; Src-1 50 mg/kg orally by gavage daily, days 1-5 and 8-12) [g] | Liver Metastases ([1]; gemcitabine 100 mg/kg intraperitoneal twice weekly (days 2, 5, 9, 12), sacrificed 32 days after tumour cell injection, monohydrochloride) | Average Tumour Weight +/− std dev ([1]; gemcitabine 100 mg/kg intraperitoneal twice weekly, 32 days after tumour cell injection) [mg] | Average Body Weight +/− std dev ([2]; gemcitabine 100 mg/kg intraperitoneal twice weekly) [g] |
| --- | --- | --- | --- | --- | --- | --- | --- | --- | --- |
| COc1ccc(Cl)c(Nc2ncnc3cc(OCC4CCN(C)CC4)c(OC)cc23)c1 [Src-1, 4-(2-chloro-5-methoxyanilino)-6-methoxy-7-(N-methylpiperidin-4-ylmethoxy)quinazoline] | 816 ± 118 | 0/9 | 827 ± 176 | 0/9 | 22.6 ± 1.4 | 22.3 ± 6.8 | – | – | – |
| Cl.Nc1ccn([C@@H]2O[C@H](CO)[C@@H](O)C2(F)F)c(=O)n1 [gemcitabine, 2′-deoxy-2′,2′-difluorocytidine monohydrochloride] | – | – | – | – | – | – | ⅕ and 1/5 | 393 ± 68 | 22.7 ± 1.5 |

— patent US20060142297A1, “Combination product of inhibitor of the src family of non-recetpor tyrosine kinases and gemcitabine” (priority 2002, published 2006)
